These compounds were tested against mTOR protein (Homo sapiens, UniProt P42345) (assay: mTOR enzyme activity assay (PHAS-1 substrate)). Details: recombinant PHAS-1 as substrate.
Format: biochemical

SMILES	IC50 [nM]
CN(N=Cc1cc(O)c(O)c(O)c1)c1nc(N2CCOCC2)c2cccnc2n1 [Compound 75a]	< 1500
COc1cc(-c2csc(-c3ccnc(N4CCOCC4)n3)n2)cc(OC)c1O [Compound 27, 2,6-Dimethoxy-4-[2-(2-morpholin-4-yl-pyrimidin-4-yl)-thiazol-4-yl]-phenol]	< 1500
COc1cc(-c2csc(-c3ccnc(N4CCCC(OC)C4)n3)n2)cc(OC)c1O (centres unmarked) [Compound 59j]	< 1500
COc1cc(C=NN(C)c2nc(N3CCOCC3)c3cccnc3n2)cc(OC)c1O [Compound 75b]	< 1500
COc1cc(-c2cncn2-c2ccnc(N3CCOCC3)n2)cc(OC)c1O [Compound 50, 2,6-Dimethoxy-4-[3-(2-morpholin-4-yl-pyrimidin-4-yl)-3H-imidazol-4-yl]-phenol]	< 1500
COc1cc(C=NNc2cc(N3CCOCC3)nc(N3CCCCC3)n2)cc(OC)c1O [Compound 12b]	< 1500

Next, values leading:

IC50 [nM]	SMILES
< 1500	COc1cc(-c2csc(-c3ccnc(N4CCOCC4)n3)c2)cc(OC)c1O [Compound 69a]
< 1500	COc1cc(-c2csc(-c3ccnc(N4CCOC[C@@H]4C)n3)n2)cc(OC)c1O [Compound 59i]
< 1500	COc1cc2ncnc(NN=Cc3ccc(O)c(O)c3)c2cc1OC [Compound 41a]
< 1500	O=C(NNc1nc(N2CCOCC2)nc(N2CCOCC2)n1)c1cc(O)c(O)c(O)c1 [Compound 47a]
< 1500	Oc1c(F)cc(-c2csc(-c3ccnc(N4CCOCC4)n3)n2)cc1F [Compound 59a]

Source: US7504397B2, “mTOR inhibitor compounds” (Kudos Pharmaceuticals Ltd., priority 2005, dated 2009)
